Tests used:
[1] = system: 4T1.2 cells; test: Cell viability (acid phosphatase assay) of cancer cells treated with Ivermectin; type: cell-based, mouse; conditions: for effect on Ivermectin-induced cell death: cells treated with Ivermectin (32 μM, 4 h in figure legends) in the presence of the agent
Method: Cell viability. Cancer cells were plated on 96 well flat-bottom plates and allowed to attach overnight. Cells were then pre-incubated with drugs for 1 h and treated with Ivermectin for 4 h. In the case of 24 h and 48 h incubations the cells, Ivermectin and drugs were plated together. All treatments and controls were done in triplicate wells and results were validated in at least two independent experiments. Following treatment the plates were washed once with PBS and cell viability was measured using the acid phosphatase assay. Briefly, cells were incubated for 1h at 37° C. in 100 μL assay buffer (0.16 M sodium acetate, 0.1% Triton-X-100, supplemented with 4-Nitrophenyl phosphate disodium salt hexahydrate, Sigma Aldrich, at 0.00263 g/ml). Reaction was stopped using 10 μL of 1N sodium hydroxide. Absorption at 405 nm was measured within 10 min using a multi-well plate reader. Mode of cell death and viability of cells in suspension was evaluated using flow cytometry. Briefly, cancer cells were pre-incubated with drugs for 30 min to 1 h, as indicated, treated with Ivermectin for 4 h in 5 ml FACS tubes , washed twice in PBS and stained with PE-conjugated Annexin V and 7AAD (1 μl per 100 μl/200,000 cancer cells) for 15 min.

[2] = system: P2X4/P2X7/Pannexin-1 channels; test: Membrane permeabilization to YOPRO-1; type: cell-based, mouse; conditions: 4T1.2 cells, 3 mM ATP and 32 μM Ivermectin
Method: FIGS. 3A-3G. Dual roles of ATP and purinergic signaling in Ivermectin's killing. FIG. 3A: Depletion of extracellular ATP with Apyrase (2500 μunits/ml) exacerbates killing of 4T1.2 cell by Ivermectin. FIG. 3B: Extracellular Ca^2− and ATP contain Ivermectin-induced cell swelling. 4T1.2 cells were treated with 32 μM Ivermectin for 4 h in the presence of 1 mM EDTA or 2500 μunits/ml Apyrase. FIG. 3C: Ivermectin (0.5-32 μM) and high concentrations of extracellular ATP (0.3-3 mM) synergistically open pannexin-1 channels and permeabilize the membrane on live cells (7AAD-positive dead cells were gated out). 4T1.2 cells were treated for 30 min as indicated in the presence of 7 AAD and 5 μM YOPRO-1. FIG. 3D: Analysis of supernatants from Ivermectin-treated murine and human TNBC cells showing rapid release of ATP followed by its transient depletion. Depletion of extracellular ATP with Apyrase (2500 μunits/ml) was used as a positive control. FIG. 3E: Analysis of membrane-proximal ATP levels using cancer cells engineered to express a membrane-bound Luciferase. […] FIG. 3G: The P2X7-specific inhibitor KN-62 (1-10 μM) blocks Ivermectin cytotoxicity (IVM 8-32 μM, 4-48 h treatments). Asterisk (*) indicates p<0.05 relative to untreated or Ivermectin alone controls, respectively.
FIGS. 10A-10L. Extracellular Dual roles of ATP and purinergic signaling in Ivermectin's killing. 4T1.2 cells were treated with Ivermectin for 4 h in the presence of different inhibitors at μM concentrations as indicated. FIG. 10A: The non-specific P2 purinergic receptor inhibitor Suramin (4-400 μM) exacerbates Ivermectin-induced cell death. FIG. 10B: Inhibition of extracellular ATPases with PSB 069 protects against Ivermectin cytotoxicity. FIG. 10C: Blockade of pannexin-1 channels with Panx-1 mimetic blocking peptide (Anaspec) and Probenecid at μM concentrations as indicated exacerbates killing. […] FIG. 10E: ATP plays a transiently protective role only in the mouse but not human breast cancer cells. 4T1.2 and MDA-MB-231 cells were treated with 32 μM Ivermectin for 4 h in the presence of ATP at mM concentrations as indicated. FIG. 10F: qPCR showing up-regulation of P2X4 and P2X7 receptors on several murine cancer cell lines, including 4T1.2 and DD-Her2/neu (breast), and B16 (melanoma). […] Expression of P2X and P2Y purinergic receptors, NOX family members, GABA, and Glycine receptors was analyzed using publicly available breast cancer cell lines datasets. Statistically significant (p<0.05) up-regulation and down-regulation in breast cancer versus normal cells is shown in red and blue, respectively. FIG. 10H: Correlation between sensitivity to Ivermectin and ATP across various human cancer cell lines. Cancer cells were treated for 24 h with 3 mM ATP or Ivermectin at 16 and 32 μM doses as indicated. […]

| Compound | effect on Ivermectin-induced cell death [1] | block of ATP+Ivermectin-induced membrane permeabilization to YOPRO-1 [2] | KN-62 needed to protect against Ivermectin-induced cell death [1] | long-term protection against Ivermectin ([1]; 24 h, 12 μM IVM) |
| --- | --- | --- | --- | --- |
| Clc1cccc(-c2nnnn2Cc2cccnc2)c1Cl [A438079] | did not observe any protection | suppressed permeabilization to YOPRO-1 in a dose-dependent fashion |  |  |
| CN([C@@H](Cc1ccc(OS(=O)(=O)c2cccc3cnccc23)cc1)C(=O)N1CCN(c2ccccc2)CC1)S(=O)(=O)c1cccc2cnccc12 [KN-62] | effective at blocking Ivermectin-induced necrotic and apoptotic cell death | suppressed permeabilization to YOPRO-1 in a dose-dependent fashion | More than 1 μM | long-term protection against Ivermectin and ATP that extended up to 24 h |
| COc1ccc(S(=O)(=O)N(CCO)c2ccccc2CN(C)C/C=C/c2ccc(Cl)cc2)cc1 [KN-93] | effectively blocked Ivermectin-induced cell death | most potent at blocking ATP- and Ivermectin-induced membrane permeabilization to YOPRO-1 |  |  |

From patent US11058700B2, “Macrocyclic lactones and uses thereof as modulators of purinergic receptors” (City of Hope, priority 2015, dated 2021)
